pIC50: −log10 of the molar value.
How the values were obtained:
TLR9 = molecular target: T1, TLR9 (Homo sapiens, UniProt Q9NR96); test: Human PBMC cell-based assay; set-up: These cells express TLR7, TLR8, or TLR9, and therefore are natural responders to respective ligand stimulation; endogenous in cells; host or cells: human PBMC from healthy donor whole blood; conditions: CpG ODN 2216 at 1 μM, read-out: hPBMC/TLR9 IC50
T1 sequence (Q9NR96 26-1032): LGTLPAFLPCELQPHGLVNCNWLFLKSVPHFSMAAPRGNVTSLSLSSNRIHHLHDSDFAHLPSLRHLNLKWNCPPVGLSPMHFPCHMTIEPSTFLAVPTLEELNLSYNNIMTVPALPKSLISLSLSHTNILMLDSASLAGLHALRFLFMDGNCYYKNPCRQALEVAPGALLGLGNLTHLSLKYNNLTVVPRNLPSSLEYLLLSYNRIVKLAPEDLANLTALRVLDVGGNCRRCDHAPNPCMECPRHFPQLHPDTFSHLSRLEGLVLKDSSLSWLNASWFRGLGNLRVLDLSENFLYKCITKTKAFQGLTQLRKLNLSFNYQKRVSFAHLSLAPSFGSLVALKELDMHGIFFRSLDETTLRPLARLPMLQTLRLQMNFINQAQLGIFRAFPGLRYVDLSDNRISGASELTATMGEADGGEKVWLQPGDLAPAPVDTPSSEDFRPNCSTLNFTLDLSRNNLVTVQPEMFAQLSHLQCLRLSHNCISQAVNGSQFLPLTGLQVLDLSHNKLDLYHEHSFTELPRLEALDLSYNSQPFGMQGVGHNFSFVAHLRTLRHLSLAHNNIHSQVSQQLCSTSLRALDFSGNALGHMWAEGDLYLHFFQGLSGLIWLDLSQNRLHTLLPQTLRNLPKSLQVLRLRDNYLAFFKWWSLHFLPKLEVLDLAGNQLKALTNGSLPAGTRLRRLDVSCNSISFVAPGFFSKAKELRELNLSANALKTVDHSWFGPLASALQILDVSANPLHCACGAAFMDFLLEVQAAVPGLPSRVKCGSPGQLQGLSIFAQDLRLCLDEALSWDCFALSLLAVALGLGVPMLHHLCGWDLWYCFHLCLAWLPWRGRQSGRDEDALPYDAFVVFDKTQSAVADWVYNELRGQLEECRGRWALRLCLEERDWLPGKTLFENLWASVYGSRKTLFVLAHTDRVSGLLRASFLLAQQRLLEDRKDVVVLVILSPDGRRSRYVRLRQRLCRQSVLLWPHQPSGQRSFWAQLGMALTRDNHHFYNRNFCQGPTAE
Description: Unlike the HEK reporter cell lines, human peripheral blood mononuclear cell (PBMC) represents primary human immune cells in blood mainly consisting of lymphocytes, monocytes, and dendritic cells. These cells express TLR7, TLR8, or TLR9, and therefore are natural responders to respective ligand stimulation. Upon activation of these TLRs, PBMCs secrete similar cytokines and chemokines in vitro and in vivo, and therefore the in vitro potency of a TLR7/8/9 antagonist in human PBMC is readily translatable to its pharmacodynamics response in vivo.
Human peripheral blood mononuclear cells (PBMC) were isolated from freshly-drawn lithium-heparinized (Lithium Heparin Plus blood Collection tube, BD Vacutainer®) healthy donor whole blood by density gradient (Ficoll-Paque™ PLUS, GE Healthcare life Sciences). Briefly, […] was diluted with 25 mL PBS (without Ca^2+, Mg^2+) in a 50 mL conical tube with porous barrier (Leucosep tube, Greiner bio-one), where 15.5 mL Ficoll-Paque was under laid after spinning. Tubes were centrifuged for 20 minutes at 800×g (1946 rpm) with the brake in the off position, and PBMC were collected from the buffy coat. Cells were then washed twice in PBS, and red blood cells were lysed by suspension in 2 mL (Red Blood Cell Lysis Buffer, Alfa Aesar) for 5-10 minutes at room temperature. After a final wash in PBS, PBMC were resuspended at a final concentration of 2×10^6 cells/mL in RPMI-1640 media with GlutaMAX™ (Gibco) supplemented with 10% Fetal Bovine Serum (Sigma) and plated at 150 μL/well (3×10^5 cells/well) in tissue culture treated round bottom 96-well plates (Corning Incorporated). Antagonist compounds (compounds of this invention) solubilized and serial diluted in 100% DMSO were added in duplicate to cells to yield a final concentration of 1% DMSO (v/v). PBMC were incubated with antagonist compounds for 30 minutes at 37° C., 5% CO2 before adding various TLR agonist reagents in 48 μL complete media per well as follows (final concentrations indicated): CpG ODN 2216 (InvivoGen) at 1 μM for TLR9, ORN 06/LyoVec (InvivoGen) at […] for TLR8 and R848 (InvivoGen) at 1 μg/mL for TLR7 and TLR8. PBMC were incubated overnight at 37° C. with 5% C02. Cell culture supernatants were collected, and levels of various human cytokines were assessed by Luminex assay (ProcartaPlex™ Multiplex Immunoassay, Invitrogen) or ELISA procedure according to the manufacturer's recommended protocol (eBioscience, ThermoFisher Scientific). Viability of the cells was also checked with Cell Viability Assay (CellTiter Glo® Luminescent Cell Viability Assay, Promega).

hERG K+ channel = molecular target: T2, hERG K+ channel (Homo sapiens, UniProt Q12809); test: hERG channel inhibition assay (patch-clamp, CHO-hERG cells); type: cell-based; conditions: for pIC50 / IC20: CHO-hERG cells, whole-cell patch-clamp; for IC20: human, CHO cells stably expressing hERG; for hERG IC20/TLR7 IC50 / hERG IC20/TLR8 IC50 / hERG IC20/TLR9 IC50: safety ratio
T2 construct: expressed in transfected cells; host or cells: CHO (Chinese hamster ovary)
T2 sequence (Q12809 whole entry): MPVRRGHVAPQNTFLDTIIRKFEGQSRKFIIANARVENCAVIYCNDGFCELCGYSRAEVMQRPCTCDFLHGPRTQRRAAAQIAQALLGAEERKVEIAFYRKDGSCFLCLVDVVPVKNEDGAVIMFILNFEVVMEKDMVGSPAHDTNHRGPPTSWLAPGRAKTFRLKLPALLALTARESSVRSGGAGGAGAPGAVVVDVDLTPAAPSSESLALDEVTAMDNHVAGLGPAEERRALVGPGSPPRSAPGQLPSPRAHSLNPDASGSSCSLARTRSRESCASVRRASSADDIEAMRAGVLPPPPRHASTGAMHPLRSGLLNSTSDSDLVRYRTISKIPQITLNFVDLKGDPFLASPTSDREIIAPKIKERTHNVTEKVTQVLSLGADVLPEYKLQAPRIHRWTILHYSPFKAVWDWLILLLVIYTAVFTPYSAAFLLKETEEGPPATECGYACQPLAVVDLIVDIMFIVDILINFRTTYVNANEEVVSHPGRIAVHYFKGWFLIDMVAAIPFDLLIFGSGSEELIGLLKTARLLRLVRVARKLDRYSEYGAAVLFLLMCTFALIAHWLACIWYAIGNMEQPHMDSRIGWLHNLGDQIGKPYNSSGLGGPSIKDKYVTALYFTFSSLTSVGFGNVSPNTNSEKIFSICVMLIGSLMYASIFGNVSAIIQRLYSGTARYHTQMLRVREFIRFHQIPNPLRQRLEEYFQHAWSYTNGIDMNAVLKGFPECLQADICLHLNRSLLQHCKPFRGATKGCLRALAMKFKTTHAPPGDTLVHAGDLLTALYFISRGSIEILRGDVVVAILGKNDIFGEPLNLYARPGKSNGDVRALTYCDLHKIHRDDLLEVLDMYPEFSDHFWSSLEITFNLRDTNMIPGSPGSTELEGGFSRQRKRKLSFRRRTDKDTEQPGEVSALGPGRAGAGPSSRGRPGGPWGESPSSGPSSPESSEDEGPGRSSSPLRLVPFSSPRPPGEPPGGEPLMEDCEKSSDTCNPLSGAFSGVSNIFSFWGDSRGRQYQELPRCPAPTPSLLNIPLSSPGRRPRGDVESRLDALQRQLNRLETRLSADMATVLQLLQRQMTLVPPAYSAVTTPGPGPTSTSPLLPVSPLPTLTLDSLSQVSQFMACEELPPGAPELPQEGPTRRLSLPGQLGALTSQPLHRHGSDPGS

pIC50 (TLR9) | Compound | pIC50 (hERG K+ channel) | IC20 (hERG K+ channel) | hERG IC20/TLR7 IC50 (hERG K+ channel) | hERG IC20/TLR8 IC50 (hERG K+ channel) | hERG IC20/TLR9 IC50 (hERG K+ channel)
6.84 | Cc1cc(N2CC[C@@H](c3ncc(N4C[C@H]5NCCO[C@@H]5C4)cc3C)[C@H](C)C2)c2cnn(C)c2n1 [Example 33, (4aR,7aR)-6-[6-[(3S,4R)-1-(1,6-dimethylpyrazolo[3,4-b]pyridin-4-yl)-3-methyl-4-piperidyl]-5-methyl-3-pyridyl]-3,4,4a,5,7,7a-hexahydro-2H-pyrrolo[3,4-b][1,4]oxazine] | < 5.00 | 4.1 µM | 372.7 | 1366.7 | 51.9
6.49 | Cc1cc(N2CC[C@@H](c3ncc(N4CC(C)(N)C4)cc3C)[C@H](C)C2)c2cnn(C)c2n1 [Example 32, 1-[6-[(3S,4R)-1-(1,6-dimethylpyrazolo[3,4-b]pyridin-4-yl)-3-methyl-4-piperidyl]-5-methyl-3-pyridyl]-3-methyl-azetidin-3-amine] | < 5.00 | 4.4 µM | 550.0 | 293.3 | 23.7
6.49 | Cc1cc(N2CCC(c3ncc(N4CCNCC4)cc3C)[C@H](C)C2)c2cnn(C)c2n1 (single isomer, unassigned) [Example 25, 1,6-dimethyl-4-[trans-3-methyl-4-(3-methyl-5-piperazin-1-yl-2-pyridyl)-1-piperidyl]pyrazolo[3,4-b]pyridine] | < 4.70 | > 10 µM | >1111.1 | >1428.6 | >102.0

From US20240360126A1, “PYRAZOLO[3,4-B]PYRIDINE COMPOUNDS FOR THE TREATMENT OF AUTOIMMUNE DISEASE” (Hoffmann-La Roche Inc., priority 2021, published 2024)
